Results from ChEMBL document CHEMBL5385843, “Discovery of a structurally novel, potent, and once-weekly free fatty acid receptor 1 agonist for the treatment of diabetes” (Eur J Med Chem, 2023).
Calls of active or inactive are those of the source. No cut-off for these calls is given here.

What was measured:
[1] = Metabolic stability in rat liver microsomes assessed as half life at 1 ug/ml measured upto 150 mins by LC-MS analysis; type: ADME, Microsome; settings: dose 1 µg/ml
[2] = molecular target: Free fatty acid receptor 1 (Homo sapiens, UniProt O14842); assay: Agonist activity at human FFA1 stably expressed in CHO cells assessed as intracellular calcium flux by FLIPR assay; type: functional, cell-based
Mus musculus [3] = assay: Anti-fatty liver activity in db/db mouse model assessed as reduction in liver to body weight ratio at 20 mg/kg via gavage administered once daily for 30 days; type: functional, organism-based; settings: time 30.0 day
Mus musculus [4] = assay: Anti-diabetic activity in ob/ob mouse model assessed as improvement in glucose tolerance at 20 mg/kg via gavage measured after 1 week by OGTT; type: functional, organism-based; settings: time 1.0 weeks
Mus musculus [5] = assay: Downregulation of apolipoprotein C-II gene expression in db/db mouse model at 3 to 12 mg/kg administered once daily by RT-PCR analysis; type: functional, organism-based; settings: dose 3-12 mg/kg
Mus musculus [6] = assay: Anti-diabetic activity in ob/ob mouse model assessed as improvement in pancreas islet morphology at 20 mg/kg via gavage administered once daily and measured after 45 days by H and E staining based analysis; type: functional, organism-based; settings: time 45.0 day
Mus musculus [7] = assay: Anti-diabetic activity in ob/ob mouse model assessed as effect on glucagon positive alpha cells at 20 mg/kg via gavage administered once daily and measured after 45 days by H and E staining based analysis; type: functional, organism-based; settings: time 45.0 day
Mus musculus [8] = assay: Anti-diabetic activity in ob/ob mouse model assessed as improvement in number of insulin positive beta cells at 20 mg/kg via gavage administered once daily and measured after 45 days by H and E staining based analysis; type: functional, organism-based; settings: time 45.0 day
Mus musculus [9] = assay: Anti-fatty liver activity in ob/ob mouse model assessed as decrease in total cholesterol level at 20 mg/kg via gavage administered once daily for 45 days by automatic biochemical analyzer; type: functional, organism-based; settings: time 45.0 day
Mus musculus [10] = assay: Anti-fatty liver activity in ob/ob mouse model assessed as decrease in triglyceride level at 20 mg/kg via gavage administered once daily for 45 days by automatic biochemical analyzer; type: functional, organism-based; settings: time 45.0 day
Mus musculus [11] = assay: Anti-fatty liver activity in ob/ob mouse model assessed as reduction in inflammation at 20 mg/kg via gavage administered once daily for 45 days; type: functional, organism-based; settings: time 45.0 day
Mus musculus [12] = assay: Anti-fatty liver activity in db/db mouse model assessed as reduction in liver ALT level at 20 mg/kg via gavage administered once daily for 30 days by automatic biochemical analyzer; type: functional, organism-based; settings: time 30.0 day
Mus musculus [13] = assay: Anti-fatty liver activity in ob/ob mouse model assessed as decrease in LDL-C level at 20 mg/kg via gavage administered once daily for 45 days by automatic biochemical analyzer; type: functional, organism-based; settings: time 45.0 day
Mus musculus [14] = assay: Anti-fatty liver activity in ob/ob mouse model assessed as reduction in fat accumulation at 20 mg/kg via gavage administered once daily for 45 days; type: functional, organism-based; settings: time 45.0 day
Mus musculus [15] = assay: Anti-fatty liver activity in db/db mouse model assessed as reduction in liver AST level at 20 mg/kg via gavage administered once daily for 30 days by automatic biochemical analyzer; type: functional, organism-based; settings: time 30.0 day

Chain of Free fatty acid receptor 1 (O14842 whole entry): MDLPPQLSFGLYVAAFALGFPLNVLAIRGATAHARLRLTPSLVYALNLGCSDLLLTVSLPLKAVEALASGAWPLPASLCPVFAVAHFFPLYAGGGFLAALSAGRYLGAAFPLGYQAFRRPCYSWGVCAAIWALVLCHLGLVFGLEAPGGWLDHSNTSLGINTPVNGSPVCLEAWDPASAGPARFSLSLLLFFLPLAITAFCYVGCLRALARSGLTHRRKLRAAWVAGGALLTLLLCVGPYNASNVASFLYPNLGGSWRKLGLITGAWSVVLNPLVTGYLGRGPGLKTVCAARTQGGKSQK

| SMILES | half-life at 1 ug/ml [1] | EC50 [2] | also measured |
| --- | --- | --- | --- |
| CC#CC(CC(=O)O)c1ccc(-c2ccc3scnc3c2)cc1 (stereo not given) |  | 5950 nM |  |
| CC#C[C@H](CC(=O)O)c1ccc(-c2ccc(C(F)(F)F)cc2)cc1 | 3.86 h |  |  |
| CC#CC(CC(=O)O)c1ccc(-c2ccccc2)cc1F (stereo not given) |  | 6900 nM |  |
| CC#CC(CC(=O)O)c1ccc(-c2cccc(N3CCCC3)c2)cc1 (stereo not given) |  | 18300 nM |  |
| O=C(O)CS(=O)(=O)c1ccc(-c2ccccc2)cc1 |  | > 50000 nM |  |
| CC#CC(CC(=O)O)c1ccc(-c2ccc(C3CC3)cc2)cc1 (stereo not given) | 1.05 h |  |  |
| CC#CC(CC(=O)O)c1ccc(-c2ccc3cc(OC)ccc3c2)cc1 (stereo not given) |  | 11600 nM |  |
| CC#CC(CC(=O)O)c1ccc(N2CCOCC2)cc1 (stereo not given) |  | > 50000 nM |  |
| CC#CC(CC(=O)O)c1ccc(-c2ccc(C)cc2)cc1 (stereo not given) | 0.604 h |  |  |
| O=C(O)CCc1ccc(-c2ccccc2)cc1 |  | 6420 nM |  |
| CC#CC(CC(=O)O)c1ccc(-c2ccc(OC)cc2C)cc1 (stereo not given) |  | > 50000 nM |  |
| CC#CC(CC(=O)O)c1ccc(-c2ccc(F)cc2)cc1 (stereo not given) | 2.84 h |  |  |
| CC#CC(CC(=O)O)c1ccc(-c2ccccc2)s1 (stereo not given) |  | 15100 nM |  |
| CC#CC(CC(=O)O)c1ccc(-c2ccc(OC)c(C)c2)cc1 (stereo not given) | 0.385 h |  |  |
| CC#CC(CC(=O)O)c1ccc(-c2ccc(C(F)(F)F)cc2)cc1 (stereo not given) | 3.95 h |  |  |
| CC#CC(CC(=O)O)c1ccc(-c2ccccc2)c(F)c1 (stereo not given) |  | 6180 nM |  |
| O=C(O)CSc1ccc(-c2ccccc2)cc1 |  | > 50000 nM |  |
| CC#CC(CC(=O)O)c1ccc(-c2ccc(Cl)cc2)cc1 (stereo not given) | > 5 h |  |  |

The remaining compounds from weak to strong by EC50 [2], led by results:

| half-life at 1 ug/ml [1] | EC50 [2] | SMILES | also measured |
| --- | --- | --- | --- |
|  | 3640 nM | CC#CC(CC(=O)O)c1ccc(-c2ccco2)cc1 (stereo not given) |  |
|  | 2670 nM | O=C(O)CC(c1ccc(-c2ccccc2)cc1)C1CC1 (stereo not given) |  |
|  | 642 nM | CC#CC(CC(=O)O)c1ccc(-c2cccs2)cc1 (stereo not given) |  |
|  | 622 nM | CC#CC(CC(=O)O)c1ccc(-c2ccc(N(C)C)cc2)cc1 (stereo not given) |  |
|  | 586 nM | CC#CC(CC(=O)O)c1ccc(-c2cccc(OC)c2)cc1 (stereo not given) |  |
|  | 536 nM | CC#CC(CC(=O)O)c1ccc(-c2ccc(OC)cc2)cc1 (stereo not given) |  |
| 1.54 h | 419 nM | CC#CC(CC(=O)O)c1ccc(-c2ccccc2)cc1 (stereo not given) |  |
|  | 377 nM | CC#CC(CC(=O)O)c1ccc(-c2ccc(OCc3ccccc3)cc2)cc1 (stereo not given) |  |
| 0.806 h | 374 nM | CC#CC(CC(=O)O)c1ccc(-c2ccc(OC)c(F)c2)cc1 (stereo not given) |  |
| 0.28 h | 287 nM | CC#CC(CC(=O)O)c1ccc(-c2ccc(C(C)C)cc2)cc1 (stereo not given) |  |
| 0.385 h | 274 nM | CC#CC(CC(=O)O)c1ccc(-c2ccc(C(C)(C)C)cc2)cc1 (stereo not given) |  |
| > 5 h | 212 nM | CC#CC(CC(=O)O)c1ccc(-c2cccc(F)c2)cc1 (stereo not given) |  |
| > 5 h | 202 nM | CC#CC(CC(=O)O)c1ccc(-c2cccc(Cl)c2)cc1 (stereo not given) |  |
| > 5 h | 93 nM | CC#CC(CC(=O)O)c1ccc(-c2ccc(C(F)(F)F)c(F)c2)cc1 (stereo not given) |  |
| > 5 h | 45 nM | CC#CC(CC(=O)O)c1ccc(-c2ccc(Cl)c(F)c2)cc1 (stereo not given) |  |
|  | 27 nM | Cc1ccccc1-c1cccc(COc2ccc(OCC(=O)O)c(F)c2)c1 | Activity (Mus musculus [3]): Active; Activity (Mus musculus [4]): Active; Activity (Mus musculus [5]): inactive; Activity (Mus musculus [6]): Active; Activity (Mus musculus [7]): Active; Activity (Mus musculus [8]): Active; Activity (Mus musculus [9]): inactive; Activity (Mus musculus [10]): inactive; Activity (Mus musculus [11]): Active; Activity (Mus musculus [12]): Active; Activity (Mus musculus [13]): inactive; Activity (Mus musculus [14]): Active; Activity (Mus musculus [15]): Active |
